In DBAASP one finds MIC data, which are given here for ten compounds.

In brackets after ≈: the same amount, converted by molar mass. Some results are limits rather than exact numbers.

Holding throughout (test): ≥ marks a high value that may be exact or a test limit, other limits are often not marked, values filed in µg/mL are converted to µM
In assay [1] the test system is Klebsiella aerogenes ATCC 13048.
Assay [2] has as its system Klebsiella pneumoniae ATCC 700603.
Assay [3] has as its system Lacticaseibacillus casei ATCC 334.
In assay [4] the test system is Listeria monocytogenes ATCC 7611.
Assay [5] deals with Micrococcus luteus ATCC 14452.
Assay [6] relates to Saccharomyces cerevisiae ATCC 204508.
Assay [7] deals with Staphylococcus aureus ATCC 29213.
Assay [8] concerns Escherichia coli CCT 1371.
Assay [9] relates to Pseudomonas aeruginosa ATCC 27853.
Assay [10] has as its system Staphylococcus aureus ATCC 6535.
For assay [11], the system named is Staphylococcus saprophyticus.
Assay [12] deals with Bacillus subtilis DELTA.
The test system of assay [13] is Candida parapsilosis.
Assay [14] concerns Escherichia coli DH5alpha.
The subject of assay [15] is Pseudomonas aeruginosa PAO1.
Assay [16] concerns Zymomonas mobilis ATCC 10988.
Assay [17] has as its system Aureobasidium pullulans.
In assay [18] the test system is Bacillus megaterium.
In assay [19] the test system is Bacillus subtilis ATCC 23857.
Assay [20] concerns Candida albicans ATCC 10231.
For assay [21], the system named is Corynebacterium glutamicum ATCC 13032.
The test system of assay [22] is Escherichia coli ATCC 25922.
The subject of assay [23] is Micrococcus luteus.
For assay [24], the system named is Staphylococcus aureus ATCC 9144.
In assay [25] the test system is Escherichia coli TOP 10.
In assay [26] the test system is Candida albicans ATCC 14053.
For assay [27], the system named is Candida glabrata ATCC 2001.
In assay [28] the test system is Candida krusei ATCC 6258.
Assay [29] relates to Candida parapsilosis ATCC 22019.
In assay [30] the test system is Escherichia coli.
In assay [31] the test system is Staphylococcus aureus ATCC BAA-1683.
Assay [32] deals with Salmonella enterica subsp. enterica serovar Enteritidis.
The subject of assay [33] is Salmonella sp.
Assay [34] concerns Staphylococcus aureus ATCC 43300.
The test system of assay [35] is Yersinia enterocolitica.
In assay [36] the test system is Candida albicans FRR 5580.
In assay [37] the test system is Pseudomonas aeruginosa ATCC 9027.
For assay [38], the system named is Bifidobacterium longum subsp. infantis.
The subject of assay [39] is Staphylococcus aureus.

Regarding `CC[C@H](C)[C@H](NC(=O)[C@H](CC(C)C)NC(=O)[C@H](C)NC(=O)[C@H](Cc1ccccc1)NC(=O)[C@H](C)N)C(=O)N[C@@H](C)C(=O)NCC(=O)N[C@@H](C)C(=O)N[C@@H](CC(C)C)C(=O)N[C@@H](Cc1ccc(O)cc1)C(=O)N[C@@H](CCCN=C(N)N)C(=O)N[C@H](C(=O)N[C@@H](Cc1ccccc1)C(=O)N[C@@H](Cc1cnc[nH]1)C(=O)N[C@@H](CCCN=C(N)N)C(=O)N[C@@H](CCCN=C(N)N)C(=O)O)[C@@H](C)CC` [AFALIAGALYRIFHRR], the MIC in [1] was at least 256 µM; in [2] it was over 256 µM; in assay [3], at least 256 µM; in assay [4] it was 8 µM (≈ 15 µg/mL); in assay [5] it was 7.5 µM (≈ 14.1 µg/mL); in assay [6], at least 32 µM. In assay [7], this compound displayed an MIC of 3.5 µM (≈ 6.56 µg/mL).

Take `CC[C@H](C)[C@H](NC(=O)[C@H](CO)NC(=O)[C@@H](NC(=O)[C@H](CCCCN)NC(=O)[C@H](Cc1ccccc1)NC(=O)[C@@H]1CCCN1C(=O)[C@@H](N)CCC(=O)O)[C@@H](C)CC)C(=O)N[C@@H](Cc1cnc[nH]1)C(=O)N[C@@H](CC(C)C)C(N)=O` [EPFKISIHL]: the MIC worked out at 13.8 µM (≈ 15 µg/mL) in assay [8], 27.7 µM (≈ 30 µg/mL) in assay [9], 27.7 µM (≈ 30 µg/mL) in [10] and 27.7 µM (≈ 30 µg/mL) in [11].

With `CC[C@H](C)[C@H](NC(=O)[C@H](CC(C)C)NC(=O)[C@H](CCC(N)=O)NC(=O)[C@@H](NC(=O)[C@@H](NC(=O)[C@H](CCCN=C(N)N)NC(=O)[C@H](CCCCN)NC(=O)[C@H](Cc1ccccc1)NC(C)=O)[C@@H](C)CC)C(C)C)C(=O)N[C@@H](CCCCN)C(=O)N[C@@H](CC(=O)O)C(=O)N[C@@H](Cc1ccccc1)C(=O)N[C@@H](CC(C)C)C(=O)N[C@@H](CCCN=C(N)N)C(N)=O` [FKRIVQLIKDFLR], the MIC was 11.9 µM (≈ 20.5 µg/mL) in assay [12]; at least 59.7 µM in assay [13]; at least 59.7 µM in [14]; 59.7 µM (≈ 102 µg/mL) in [15]; at least 59.7 µM in assay [16].

On to `C[C@H](NC(=O)[C@H](CCCCN)NC(=O)[C@H](Cc1c[nH]c2ccccc12)NC(=O)[C@H](Cc1c[nH]c2ccccc12)NC(=O)CNC(=O)[C@@H]1CCCN1C(=O)[C@H](CCCCN)NC(=O)[C@H](CCCCN)NC(=O)CN)C(=O)N[C@@H](CCCCN)C(N)=O` [GKKPGWWKAK], for which the MIC is at least 52.7 µM in assay [17]; 3.29 µM (≈ 3.9 µg/mL) in assay [18]; at least 105 µM in assay [19]; 52.7 µM (≈ 62.4 µg/mL) in assay [20]; 3.29 µM (≈ 3.9 µg/mL) in assay [21]; over 211 µM in assay [22]. The MIC in assay [23] is at least 105 µM; in assay [9], over 211 µM; in assay [24], at least 211 µM.

`CC[C@H](C)[C@H](NC(=O)[C@H](CCCCN)NC(=O)[C@H](CO)NC(=O)[C@H](Cc1ccccc1)NC(=O)[C@H](CC(C)C)NC(=O)[C@H](CCCCN)NC(=O)[C@H](CCCCN)NC(=O)[C@H](CC(C)C)NC(=O)CN)C(=O)N[C@@H](CCCCN)C(=O)N[C@H](C(=O)N[C@H](C(=O)NCC(=O)N[C@@H](CO)C(=O)N[C@@H](C)C(=O)N[C@@H](CC(C)C)C(=O)N[C@@H](CCCCN)C(=O)N[C@@H](CC(N)=O)C(=O)N[C@@H](CC(C)C)C(=O)N[C@@H](C)C(N)=O)[C@@H](C)CC)[C@@H](C)CC` [GLKKLFSKIKIIGSALKNLA]: in [25], the MIC is 1.45 µM (≈ 3.1 µg/mL).

Take `CC[C@H](C)[C@H](N)C(=O)N[C@@H](CC(=O)O)C(=O)N[C@@H](Cc1c[nH]c2ccccc12)C(=O)N[C@@H](Cc1cnc[nH]1)C(=O)N[C@@H](Cc1cnc[nH]1)C(=O)N[C@@H](CC(C)C)C(=O)N[C@@H](CC(C)C)C(=O)N[C@@H](CC(=O)O)C(=O)N[C@@H](C)C(=O)N[C@@H](C)C(=O)N[C@@H](Cc1cnc[nH]1)C(=O)N[C@@H](CCC(N)=O)C(=O)N[C@H](C(=O)N[C@@H](CC(C)C)C(N)=O)[C@@H](C)CC` [IDWHHLLDAAHQIL]: the MIC in assay [26] was at least 64 µM; in assay [27] it was 16 µM (≈ 26.9 µg/mL); in assay [28], at least 32 µM; in [29] it was at least 64 µM.

In the case of `CC(C)C[C@H](NC(=O)[C@H](CC(C)C)NC(=O)[C@H](CC(C)C)NC(=O)[C@H](CC(C)C)NC(=O)[C@H](CCCCN)NC(=O)[C@H](CCCCN)NC(=O)[C@H](CCCCN)NC(=O)[C@@H](N)CCCCN)C(=O)N[C@@H](CCCN=C(N)N)C(=O)N[C@@H](CCCN=C(N)N)C(N)=O` [KKKKLLLLRR], the MIC in assay [30] was 386 µM (≈ 500 µg/mL); in [31], at least 386 µM.

Consider `CC[C@H](C)[C@H](NC(=O)[C@H](CCCN=C(N)N)NC(=O)[C@H](CCCN=C(N)N)NC(=O)[C@@H](NC(=O)[C@@H](NC(=O)[C@H](CCC(N)=O)NC(=O)[C@@H](N)CCCN=C(N)N)[C@@H](C)CC)[C@@H](C)CC)C(=O)N[C@@H](CCC(N)=O)C(=O)N[C@@H](CCCN=C(N)N)C(N)=O` [RQIIRRIQR], for which the MIC in [22] was over 40.4 µM; in [30] it was over 40.4 µM; in assay [32], at least 40.4 µM; in assay [33], at least 40.4 µM; in assay [7], over 40.4 µM; in [34], over 40.4 µM. Also, in [35], the MIC is at least 40.4 µM.

In the case of `NCCCC[C@H](NC(=O)[C@H](Cc1c[nH]c2ccccc12)NC(=O)[C@H](Cc1c[nH]c2ccccc12)NC(=O)[C@H](CCCCN)NC(=O)[C@H](Cc1c[nH]c2ccccc12)NC(=O)[C@H](Cc1c[nH]c2ccccc12)NC(=O)[C@@H](N)CCCN=C(N)N)C(N)=O` [RWWKWWK], the figures for the minimal inhibitory concentration (MIC) in assay [36] and in [37] were at least 54.5 µM and 27.2 µM (≈ 32 µg/mL), respectively.

With `CC[C@H](C)[C@H](NC(=O)[C@H](CCC(N)=O)NC(=O)[C@H](C)NC(=O)[C@H](Cc1cnc[nH]1)NC(=O)[C@@H]1CCCN1C(=O)[C@H](CCCN=C(N)N)NC(=O)[C@@H](NC(=O)[C@@H](NC(=O)[C@H](C)NC(=O)[C@@H]1CCCN1C(=O)[C@H](CC(N)=O)NC(=O)[C@H](C)NC(=O)[C@@H](N)Cc1ccc(O)cc1)C(C)C)C(C)C)C(=O)N1CCC[C@H]1C(=O)N[C@@H](CCC(N)=O)C(=O)N[C@@H](CCCN=C(N)N)C(=O)O` [YANPAVVRPHAQIPQR], the MIC in assay [38] is at least 1650 µM; in assay [30], over 1650 µM; in assay [39], over 1650 µM.
